Source: the kinase profiling compilation of Christmann-Franck et al. (2016)
Values belong to the compound of their own block, whether it stands above or below them.

Legend:
Assay in all cases: Caliper, Mobility shift assay off-chip
[1] = target: BMX (human) (UniProt P51813)
[2] = target: CAMK2G (human) (UniProt Q13555)
[3] = target: CAMK4 (human) (UniProt Q16566)
[4] = target: CDK2 CCNE1 (human) (UniProt P24864+P24941)
[5] = target: CDK5 CDK5R1 p25 (human) (UniProt Q15078+Q00535)
[6] = target: CDK5 CDK5R1 p35 (human) (UniProt Q00535+Q15078)
[7] = tested on: CHEK2 (human), O96017 [I157T]
[8] = target: DAPK1 (human) (UniProt P53355)
[9] = tested on: EGFR (human), P00533 [L858R]
[10] = tested on: EGFR (human), P00533 [T790M/L858R]
[11] = target: EPHB1 (human) (UniProt P54762)
[12] = target: ERBB4 (human) (UniProt Q15303)
[13] = target: FES (human) (UniProt P07332)
[14] = tested on: FGFR1 (human), P11362 [V561M]
[15] = tested on: FLT3 (human), P36888 [D835Y]
[16] = target: GSK3B (human) (UniProt P49841)
[17] = target: HIPK1 (human) (UniProt Q86Z02)
[18] = target: IRAK4 (human) (UniProt Q9NWZ3)
[19] = tested on: KIT (human), P10721 [D816H]
[20] = target: MAP2K1 (human) (UniProt Q02750)
[21] = target: MAPK14 (human) (UniProt Q16539)
[22] = target: NTRK2 (human) (UniProt Q16620)
[23] = target: PAK2 (human) (UniProt Q13177)
[24] = target: PAK7 (human) (UniProt Q9P286)
[25] = tested on: PDGFRA (human), P16234 [D842V]
[26] = tested on: PDGFRA (human), P16234 [V561D]
[27] = target: PRKCH (human) (UniProt P24723)
[28] = target: PRKD2 (human) (UniProt Q9BZL6)
[29] = target: PRKG2 (human) (UniProt Q13237)
[30] = target: RET (human) (UniProt P07949)
[31] = target: RIPK2 (human) (UniProt O43353)
[32] = target: RPS6KA6 KD1 KD2 (human) (UniProt Q9UK32)
[33] = target: SRPK2 (human) (UniProt P78362)
[34] = target: STK11 (human) (UniProt Q15831)
[35] = target: STK17A (human) (UniProt Q9UEE5)
[36] = target: STK24 (human) (UniProt Q9Y6E0)
[37] = target: SYK (human) (UniProt P43405)
[38] = target: TBK1 (human) (UniProt Q9UHD2)
[39] = target: TLK2 (human) (UniProt Q86UE8)
[40] = target: TSSK2 (human) (UniProt Q96PF2)
TSSK2 (human), sequence (Q96PF2 whole entry, looked up): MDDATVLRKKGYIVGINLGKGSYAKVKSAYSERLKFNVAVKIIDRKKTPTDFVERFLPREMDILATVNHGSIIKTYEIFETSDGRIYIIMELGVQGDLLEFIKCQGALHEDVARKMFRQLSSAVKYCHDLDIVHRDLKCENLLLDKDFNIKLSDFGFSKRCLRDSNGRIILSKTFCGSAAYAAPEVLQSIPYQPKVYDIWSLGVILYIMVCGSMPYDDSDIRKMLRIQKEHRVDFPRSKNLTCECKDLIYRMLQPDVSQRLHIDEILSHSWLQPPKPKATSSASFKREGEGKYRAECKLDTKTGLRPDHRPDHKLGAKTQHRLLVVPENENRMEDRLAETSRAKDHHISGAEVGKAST

RIPK2 (human), sequence (O43353 whole entry, looked up): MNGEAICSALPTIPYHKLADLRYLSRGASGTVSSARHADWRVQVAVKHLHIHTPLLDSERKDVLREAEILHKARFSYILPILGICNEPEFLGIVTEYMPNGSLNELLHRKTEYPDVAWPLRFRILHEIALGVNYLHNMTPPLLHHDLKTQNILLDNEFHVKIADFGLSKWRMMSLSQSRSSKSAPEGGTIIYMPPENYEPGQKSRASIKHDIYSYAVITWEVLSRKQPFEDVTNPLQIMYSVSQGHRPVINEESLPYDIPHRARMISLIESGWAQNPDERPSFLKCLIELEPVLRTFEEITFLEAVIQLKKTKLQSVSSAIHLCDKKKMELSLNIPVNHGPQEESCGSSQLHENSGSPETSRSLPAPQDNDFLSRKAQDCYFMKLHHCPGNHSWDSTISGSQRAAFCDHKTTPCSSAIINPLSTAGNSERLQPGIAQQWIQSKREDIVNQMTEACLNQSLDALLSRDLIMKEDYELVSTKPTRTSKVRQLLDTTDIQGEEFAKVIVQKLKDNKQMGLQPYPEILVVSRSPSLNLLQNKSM
RET (human), sequence (P07949 whole entry, looked up): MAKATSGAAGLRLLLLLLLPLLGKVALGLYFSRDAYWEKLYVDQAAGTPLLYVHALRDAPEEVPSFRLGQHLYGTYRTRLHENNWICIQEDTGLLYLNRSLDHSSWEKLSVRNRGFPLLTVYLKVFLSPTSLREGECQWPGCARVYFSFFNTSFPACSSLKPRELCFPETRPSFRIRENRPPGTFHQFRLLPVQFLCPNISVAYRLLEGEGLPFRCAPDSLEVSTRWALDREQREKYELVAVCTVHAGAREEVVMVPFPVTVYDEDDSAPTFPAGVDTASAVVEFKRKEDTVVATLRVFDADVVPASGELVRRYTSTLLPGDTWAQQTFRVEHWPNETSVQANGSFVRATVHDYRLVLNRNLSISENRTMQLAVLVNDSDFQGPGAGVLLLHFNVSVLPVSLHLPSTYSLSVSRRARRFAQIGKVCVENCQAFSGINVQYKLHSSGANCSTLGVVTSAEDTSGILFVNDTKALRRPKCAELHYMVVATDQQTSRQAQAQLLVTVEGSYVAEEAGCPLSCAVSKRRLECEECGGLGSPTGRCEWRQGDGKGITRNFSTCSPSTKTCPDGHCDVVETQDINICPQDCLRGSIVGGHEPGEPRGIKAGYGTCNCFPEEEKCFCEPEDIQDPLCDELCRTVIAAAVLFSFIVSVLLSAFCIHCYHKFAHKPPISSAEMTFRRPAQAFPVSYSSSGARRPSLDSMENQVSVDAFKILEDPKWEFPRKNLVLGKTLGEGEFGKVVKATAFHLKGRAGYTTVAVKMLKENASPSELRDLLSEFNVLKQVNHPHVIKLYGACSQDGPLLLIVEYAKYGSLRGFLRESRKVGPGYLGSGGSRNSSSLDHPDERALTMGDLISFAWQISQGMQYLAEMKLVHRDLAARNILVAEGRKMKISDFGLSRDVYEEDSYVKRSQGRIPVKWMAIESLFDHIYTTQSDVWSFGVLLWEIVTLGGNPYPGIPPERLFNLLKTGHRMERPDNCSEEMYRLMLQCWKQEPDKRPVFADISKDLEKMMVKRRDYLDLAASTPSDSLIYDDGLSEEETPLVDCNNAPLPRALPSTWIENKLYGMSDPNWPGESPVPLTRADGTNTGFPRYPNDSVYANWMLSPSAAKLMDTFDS
GSK3B (human), sequence (P49841 whole entry, looked up): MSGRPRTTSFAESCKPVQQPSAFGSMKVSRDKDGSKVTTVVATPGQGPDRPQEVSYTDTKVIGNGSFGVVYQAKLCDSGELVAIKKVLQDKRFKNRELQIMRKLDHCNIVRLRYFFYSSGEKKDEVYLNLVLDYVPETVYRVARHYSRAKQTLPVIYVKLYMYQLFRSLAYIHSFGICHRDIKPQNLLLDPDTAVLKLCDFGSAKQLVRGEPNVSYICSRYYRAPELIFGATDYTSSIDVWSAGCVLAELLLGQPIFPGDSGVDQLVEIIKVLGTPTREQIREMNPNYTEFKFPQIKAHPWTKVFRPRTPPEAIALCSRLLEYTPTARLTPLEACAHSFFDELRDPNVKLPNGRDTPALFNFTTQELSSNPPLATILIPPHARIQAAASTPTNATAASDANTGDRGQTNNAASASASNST
CAMK4 (human), sequence (Q16566 whole entry, looked up): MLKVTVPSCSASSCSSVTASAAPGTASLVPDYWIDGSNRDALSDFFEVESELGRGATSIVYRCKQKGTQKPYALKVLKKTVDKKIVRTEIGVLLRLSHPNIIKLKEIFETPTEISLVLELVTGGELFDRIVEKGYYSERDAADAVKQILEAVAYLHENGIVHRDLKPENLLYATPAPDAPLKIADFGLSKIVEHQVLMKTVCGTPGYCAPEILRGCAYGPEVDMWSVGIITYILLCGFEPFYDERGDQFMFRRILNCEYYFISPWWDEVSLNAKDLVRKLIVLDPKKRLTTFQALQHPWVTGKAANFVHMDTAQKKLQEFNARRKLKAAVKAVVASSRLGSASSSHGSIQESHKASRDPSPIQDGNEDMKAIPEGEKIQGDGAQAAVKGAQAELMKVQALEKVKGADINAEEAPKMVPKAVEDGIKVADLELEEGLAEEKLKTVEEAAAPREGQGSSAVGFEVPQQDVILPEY
PAK2 (human), sequence (Q13177 whole entry, looked up): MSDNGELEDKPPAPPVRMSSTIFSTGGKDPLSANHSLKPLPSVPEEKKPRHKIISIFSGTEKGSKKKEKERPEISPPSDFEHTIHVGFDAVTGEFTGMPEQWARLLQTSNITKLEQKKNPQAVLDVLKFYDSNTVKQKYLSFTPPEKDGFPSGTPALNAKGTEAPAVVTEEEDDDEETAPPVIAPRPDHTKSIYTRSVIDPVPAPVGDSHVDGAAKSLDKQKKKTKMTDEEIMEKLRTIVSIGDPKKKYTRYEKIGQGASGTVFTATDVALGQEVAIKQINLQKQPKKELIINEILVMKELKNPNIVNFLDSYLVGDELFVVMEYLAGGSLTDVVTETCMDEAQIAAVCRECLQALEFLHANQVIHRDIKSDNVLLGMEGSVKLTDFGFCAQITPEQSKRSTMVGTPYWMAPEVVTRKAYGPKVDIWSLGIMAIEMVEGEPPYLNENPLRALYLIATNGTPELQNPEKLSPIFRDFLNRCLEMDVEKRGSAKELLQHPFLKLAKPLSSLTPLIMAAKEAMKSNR
PRKD2 (human), sequence (Q9BZL6 whole entry, looked up): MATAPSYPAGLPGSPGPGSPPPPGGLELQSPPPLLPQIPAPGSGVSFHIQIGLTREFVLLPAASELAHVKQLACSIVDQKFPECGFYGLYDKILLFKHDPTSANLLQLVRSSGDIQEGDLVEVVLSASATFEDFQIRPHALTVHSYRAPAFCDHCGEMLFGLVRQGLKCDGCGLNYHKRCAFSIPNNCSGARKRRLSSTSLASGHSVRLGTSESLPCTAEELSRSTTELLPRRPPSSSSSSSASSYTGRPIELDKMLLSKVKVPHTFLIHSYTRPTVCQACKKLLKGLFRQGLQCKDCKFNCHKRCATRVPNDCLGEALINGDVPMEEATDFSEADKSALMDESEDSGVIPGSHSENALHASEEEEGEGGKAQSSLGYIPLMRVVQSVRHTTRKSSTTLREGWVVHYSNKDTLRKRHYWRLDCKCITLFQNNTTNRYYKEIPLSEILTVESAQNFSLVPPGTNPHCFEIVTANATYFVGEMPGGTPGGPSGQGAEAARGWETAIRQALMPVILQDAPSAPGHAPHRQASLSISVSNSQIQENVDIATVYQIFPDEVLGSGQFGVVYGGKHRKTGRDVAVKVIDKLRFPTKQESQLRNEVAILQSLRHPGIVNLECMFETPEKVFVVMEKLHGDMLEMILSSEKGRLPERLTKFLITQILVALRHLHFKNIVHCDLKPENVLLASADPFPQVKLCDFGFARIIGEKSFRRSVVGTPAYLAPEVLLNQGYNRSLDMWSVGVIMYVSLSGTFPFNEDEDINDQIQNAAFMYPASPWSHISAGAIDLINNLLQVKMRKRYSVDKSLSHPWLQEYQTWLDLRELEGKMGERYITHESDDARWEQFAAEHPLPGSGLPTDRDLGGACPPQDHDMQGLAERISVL
MAPK14 (human), sequence (Q16539 whole entry, looked up): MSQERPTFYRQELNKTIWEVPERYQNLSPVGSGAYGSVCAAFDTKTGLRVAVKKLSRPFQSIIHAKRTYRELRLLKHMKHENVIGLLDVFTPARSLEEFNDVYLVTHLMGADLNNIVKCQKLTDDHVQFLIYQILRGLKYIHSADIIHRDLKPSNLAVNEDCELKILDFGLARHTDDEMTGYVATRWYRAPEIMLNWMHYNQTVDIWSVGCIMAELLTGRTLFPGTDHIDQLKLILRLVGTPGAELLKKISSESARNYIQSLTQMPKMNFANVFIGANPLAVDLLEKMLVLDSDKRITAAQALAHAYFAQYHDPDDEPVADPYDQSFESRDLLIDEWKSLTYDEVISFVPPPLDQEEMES

- residual activity ([1]; compound 10.0 µM): 25%
- residual activity ([2]; compound 10.0 µM): 58%
- residual activity ([3]; compound 10.0 µM): 69%
- residual activity ([4]; compound 10.0 µM): 99%
- residual activity ([5]; compound 10.0 µM): 82%
- residual activity ([6]; compound 10.0 µM): 98%
- residual activity ([7]; compound 10.0 µM): 6%
- residual activity ([8]; compound 10.0 µM): 50%
- residual activity ([9]; compound 10.0 µM): 50%
- residual activity ([10]; compound 10.0 µM): 68%
- residual activity ([11]; compound 10.0 µM): 110%
- residual activity ([12]; compound 10.0 µM): 116%
- residual activity ([13]; compound 10.0 µM): 69%
- residual activity ([14]; compound 10.0 µM): 6%
- residual activity ([15]; compound 10.0 µM): 10%
- residual activity ([16]; compound 10.0 µM): 118%
- residual activity ([17]; compound 10.0 µM): 78%
- residual activity ([18]; compound 10.0 µM): 73%
- residual activity ([19]; compound 10.0 µM): 22%
- residual activity ([20]; compound 10.0 µM): 43%
- residual activity ([21]; compound 10.0 µM): 72%
- residual activity ([22]; compound 10.0 µM): 23%
- residual activity ([23]; compound 10.0 µM): 98%
- residual activity ([24]; compound 10.0 µM): 121%
- residual activity ([25]; compound 10.0 µM): 5%
- residual activity ([26]; compound 10.0 µM): 10%
- residual activity ([27]; compound 10.0 µM): 95%
- residual activity ([28]; compound 10.0 µM): 15%
- residual activity ([29]; compound 10.0 µM): 34%
- residual activity ([30]; compound 10.0 µM): 9%
- residual activity ([31]; compound 10.0 µM): 78%
- residual activity ([32]; compound 10.0 µM): 15%
- residual activity ([33]; compound 10.0 µM): 96%
- residual activity ([34]; compound 10.0 µM): 104%
- residual activity ([35]; compound 10.0 µM): 15%
- residual activity ([36]; compound 10.0 µM): 106%
- residual activity ([37]; compound 10.0 µM): 33%
- residual activity ([38]; compound 10.0 µM): 47%
- residual activity ([39]; compound 10.0 µM): 106%
- residual activity ([40]; compound 10.0 µM): 72%
Structure (SMILES): COc1ccc(C#Cc2ccc3ncc4ncn(-c5ccc(CCN)cc5)c4c3c2)cc1

- residual activity ([1]; compound 1.0 µM): 89%
- residual activity ([2]; compound 1.0 µM): 13%
- residual activity ([3]; compound 1.0 µM): 22%
- residual activity ([4]; compound 1.0 µM): 116%
- residual activity ([5]; compound 1.0 µM): 104%
- residual activity ([6]; compound 1.0 µM): 122%
- residual activity ([7]; compound 1.0 µM): 9%
- residual activity ([8]; compound 1.0 µM): 82%
- residual activity ([9]; compound 1.0 µM): 76%
- residual activity ([10]; compound 1.0 µM): 12%
- residual activity ([11]; compound 1.0 µM): 104%
- residual activity ([12]; compound 1.0 µM): 102%
- residual activity ([13]; compound 1.0 µM): 92%
- residual activity ([14]; compound 1.0 µM): 73%
- residual activity ([15]; compound 1.0 µM): 9%
- residual activity ([16]; compound 1.0 µM): 82%
- residual activity ([17]; compound 1.0 µM): 109%
- residual activity ([18]; compound 1.0 µM): 122%
- residual activity ([19]; compound 1.0 µM): 9%
- residual activity ([20]; compound 1.0 µM): 96%
- residual activity ([21]; compound 1.0 µM): 107%
- residual activity ([22]; compound 1.0 µM): 59%
- residual activity ([23]; compound 1.0 µM): 99%
- residual activity ([24]; compound 1.0 µM): 103%
- residual activity ([25]; compound 1.0 µM): 1%
- residual activity ([26]; compound 1.0 µM): 1%
- residual activity ([27]; compound 1.0 µM): 109%
- residual activity ([28]; compound 1.0 µM): 96%
- residual activity ([29]; compound 1.0 µM): 88%
- residual activity ([30]; compound 1.0 µM): 1%
- residual activity ([31]; compound 1.0 µM): 51%
- residual activity ([32]; compound 1.0 µM): 12%
- residual activity ([33]; compound 1.0 µM): 107%
- residual activity ([34]; compound 1.0 µM): 96%
- residual activity ([35]; compound 1.0 µM): 62%
- residual activity ([36]; compound 1.0 µM): 125%
- residual activity ([37]; compound 1.0 µM): 105%
- residual activity ([38]; compound 1.0 µM): 78%
- residual activity ([39]; compound 1.0 µM): 80%
- residual activity ([40]; compound 1.0 µM): 106%
Structure (SMILES): C[C@@H](Nc1nc2c(C#CC3CC3)c[nH]c(=O)c2c2cc(-c3cn[nH]c3)ccc12)C(C)(C)C

- residual activity ([1]; compound 1.0 µM): 94%
- residual activity ([3]; compound 1.0 µM): 61%
- residual activity ([5]; compound 1.0 µM): 108%
- residual activity ([9]; compound 1.0 µM): 105%
- residual activity ([12]; compound 1.0 µM): 103%
- residual activity ([13]; compound 1.0 µM): 41%
- residual activity ([15]; compound 1.0 µM): 5%
- residual activity ([16]; compound 1.0 µM): 105%
- residual activity ([18]; compound 1.0 µM): 85%
- residual activity ([20]; compound 1.0 µM): 97%
- residual activity ([21]; compound 1.0 µM): 94%
- residual activity ([22]; compound 1.0 µM): 50%
- residual activity ([23]; compound 1.0 µM): 106%
- residual activity ([27]; compound 1.0 µM): 95%
- residual activity ([28]; compound 1.0 µM): 56%
- residual activity ([30]; compound 1.0 µM): 37%
- residual activity ([31]; compound 1.0 µM): 93%
- residual activity ([33]; compound 1.0 µM): 108%
- residual activity ([34]; compound 1.0 µM): 104%
- residual activity ([35]; compound 1.0 µM): 23%
- residual activity ([37]; compound 1.0 µM): 65%
- residual activity ([38]; compound 1.0 µM): 59%
- residual activity ([40]; compound 1.0 µM): 56%
Structure (SMILES): Cc1n[nH]c2c1c(=O)n(CCCN)c1ccc(Cl)cc21
